Assay [1] can be described thus: DRUGMATRIX: Phosphodiesterase PDE4 enzyme inhibition (substrate: [3H]cAMP + cAMP). To be noted: u-937; Not Active = under 50% inhibition at 10 µM.
Assay [2] addresses Mitogen-activated protein kinase 3 (Homo sapiens, UniProt P27361). Put plainly: DRUGMATRIX: Protein Serine/Threonine Kinase, ERK1 enzyme inhibition (substrate: Myelin Basic Protein). Details: species or system Escherichia coli. To be noted: Not Active = under 50% inhibition at 10 µM.
For assay [3], the target named is T1, Receptor-type tyrosine-protein phosphatase C (Homo sapiens, UniProt P08575).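 Further: inhibition of CD45 enzyme activity measured using DiFMUP as substrate; in other assays of this panel Not Active means under 50% inhibition at 10 µM.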
T1 sequence (P08575 whole entry): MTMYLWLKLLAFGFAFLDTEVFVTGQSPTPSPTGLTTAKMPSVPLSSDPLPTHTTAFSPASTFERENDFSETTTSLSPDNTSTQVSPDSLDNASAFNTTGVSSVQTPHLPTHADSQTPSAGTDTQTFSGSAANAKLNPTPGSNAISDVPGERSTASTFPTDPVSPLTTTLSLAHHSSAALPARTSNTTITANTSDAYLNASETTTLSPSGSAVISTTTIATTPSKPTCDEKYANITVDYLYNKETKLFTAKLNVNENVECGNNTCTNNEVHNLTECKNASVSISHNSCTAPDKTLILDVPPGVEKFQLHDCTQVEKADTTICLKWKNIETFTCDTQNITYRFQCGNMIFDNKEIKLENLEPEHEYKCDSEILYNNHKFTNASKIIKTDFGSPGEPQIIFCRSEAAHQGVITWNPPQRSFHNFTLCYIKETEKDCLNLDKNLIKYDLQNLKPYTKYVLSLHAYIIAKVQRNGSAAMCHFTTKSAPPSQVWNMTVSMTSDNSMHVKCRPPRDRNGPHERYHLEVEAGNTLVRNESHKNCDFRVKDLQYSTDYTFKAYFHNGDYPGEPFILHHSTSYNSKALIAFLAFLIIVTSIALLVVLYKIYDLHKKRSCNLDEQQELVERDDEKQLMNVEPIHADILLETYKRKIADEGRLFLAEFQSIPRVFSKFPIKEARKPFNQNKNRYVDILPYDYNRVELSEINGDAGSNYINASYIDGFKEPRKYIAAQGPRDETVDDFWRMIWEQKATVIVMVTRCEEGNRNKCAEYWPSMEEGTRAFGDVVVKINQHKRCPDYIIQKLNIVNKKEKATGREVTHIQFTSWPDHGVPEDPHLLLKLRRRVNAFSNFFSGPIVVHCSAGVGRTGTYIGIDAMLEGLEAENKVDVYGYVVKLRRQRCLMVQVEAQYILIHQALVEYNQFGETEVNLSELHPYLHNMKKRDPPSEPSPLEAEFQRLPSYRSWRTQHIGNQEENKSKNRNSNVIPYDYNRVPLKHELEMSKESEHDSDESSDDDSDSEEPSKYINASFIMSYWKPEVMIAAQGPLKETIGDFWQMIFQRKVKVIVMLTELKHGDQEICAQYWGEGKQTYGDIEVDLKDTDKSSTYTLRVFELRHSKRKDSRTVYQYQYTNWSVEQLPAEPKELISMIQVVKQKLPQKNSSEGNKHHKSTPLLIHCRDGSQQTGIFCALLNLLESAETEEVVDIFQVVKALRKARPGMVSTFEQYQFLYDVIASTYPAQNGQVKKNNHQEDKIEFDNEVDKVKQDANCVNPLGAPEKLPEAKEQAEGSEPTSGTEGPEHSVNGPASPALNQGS
Details: species or system Escherichia coli.

The nature of assay [4]: DRUGMATRIX: Tumor Necrosis Factor (TNF), Non-Selective radioligand binding (ligand: [125I] TNF-alpha). The settings on record: u-937; Not Active = under 50% inhibition at 10 µM. It counts as cell membranes, Membrane.
The target of assay [5] is cGMP-specific 3',5'-cyclic phosphodiesterase (Homo sapiens, UniProt O76074). Put plainly: DRUGMATRIX: Phosphodiesterase PDE5 enzyme inhibition (substrate: [3H]cGMP + cGMP). It counts as tissue-based, Platelet. To be noted: platelet; Not Active = under 50% inhibition at 10 µM.
Assay [6] deals with Receptor tyrosine-protein kinase erbB-2 (Homo sapiens, UniProt P04626). It counts as cell-based. To be noted: insect cells.
Chain of Receptor tyrosine-protein kinase erbB-2 (P04626 whole entry): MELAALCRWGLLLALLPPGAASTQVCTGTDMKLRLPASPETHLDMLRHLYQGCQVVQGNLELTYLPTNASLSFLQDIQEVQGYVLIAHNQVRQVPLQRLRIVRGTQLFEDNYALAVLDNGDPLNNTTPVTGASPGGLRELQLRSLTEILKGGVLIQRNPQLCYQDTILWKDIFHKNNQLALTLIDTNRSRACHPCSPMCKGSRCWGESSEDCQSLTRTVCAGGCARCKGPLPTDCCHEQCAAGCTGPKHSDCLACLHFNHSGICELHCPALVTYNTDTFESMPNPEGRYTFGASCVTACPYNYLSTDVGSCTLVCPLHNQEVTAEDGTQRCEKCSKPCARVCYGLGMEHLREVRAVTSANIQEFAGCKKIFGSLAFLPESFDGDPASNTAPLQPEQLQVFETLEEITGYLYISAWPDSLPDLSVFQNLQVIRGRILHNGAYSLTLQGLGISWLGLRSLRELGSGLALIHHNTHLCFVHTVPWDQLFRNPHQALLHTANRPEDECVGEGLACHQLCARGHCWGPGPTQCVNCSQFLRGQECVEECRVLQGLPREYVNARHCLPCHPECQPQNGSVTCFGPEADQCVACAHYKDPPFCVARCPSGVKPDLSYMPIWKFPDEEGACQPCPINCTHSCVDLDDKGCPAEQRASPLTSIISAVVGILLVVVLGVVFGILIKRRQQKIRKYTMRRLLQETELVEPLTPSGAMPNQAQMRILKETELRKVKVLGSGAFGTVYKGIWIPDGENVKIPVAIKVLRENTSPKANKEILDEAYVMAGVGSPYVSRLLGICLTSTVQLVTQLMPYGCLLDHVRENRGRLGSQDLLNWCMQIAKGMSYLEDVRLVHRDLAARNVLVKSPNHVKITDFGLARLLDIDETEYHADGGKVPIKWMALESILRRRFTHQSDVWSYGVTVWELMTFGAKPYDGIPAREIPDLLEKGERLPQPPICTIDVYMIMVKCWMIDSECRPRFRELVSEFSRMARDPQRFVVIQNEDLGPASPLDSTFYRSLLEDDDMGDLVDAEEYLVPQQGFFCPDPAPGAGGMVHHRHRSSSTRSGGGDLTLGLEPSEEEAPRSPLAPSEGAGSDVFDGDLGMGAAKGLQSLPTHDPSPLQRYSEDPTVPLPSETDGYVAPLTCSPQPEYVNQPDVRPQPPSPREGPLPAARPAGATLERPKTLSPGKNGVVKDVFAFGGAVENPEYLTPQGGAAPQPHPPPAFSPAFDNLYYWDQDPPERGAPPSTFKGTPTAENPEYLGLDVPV
The target in assay [7] is T2, 5-hydroxytryptamine receptor 1A (Rattus norvegicus, UniProt P19327). Further: in other assays of this panel Not Active means under 50% inhibition at 10 µM.
T2 sequence (P19327 whole entry): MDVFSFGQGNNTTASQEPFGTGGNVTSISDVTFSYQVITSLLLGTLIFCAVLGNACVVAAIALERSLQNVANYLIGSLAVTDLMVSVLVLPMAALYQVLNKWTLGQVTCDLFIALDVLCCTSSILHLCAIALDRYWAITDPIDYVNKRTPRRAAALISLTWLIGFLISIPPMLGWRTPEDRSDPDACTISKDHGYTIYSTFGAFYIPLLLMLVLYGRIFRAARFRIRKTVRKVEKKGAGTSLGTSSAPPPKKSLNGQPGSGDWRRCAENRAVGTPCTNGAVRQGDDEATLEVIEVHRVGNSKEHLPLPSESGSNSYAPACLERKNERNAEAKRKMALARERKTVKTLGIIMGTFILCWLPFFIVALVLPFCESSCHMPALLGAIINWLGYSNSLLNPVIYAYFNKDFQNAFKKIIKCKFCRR
The format is cell membranes, CHO-K1, Membrane.

Chain of Mitogen-activated protein kinase 3 (P27361 whole entry): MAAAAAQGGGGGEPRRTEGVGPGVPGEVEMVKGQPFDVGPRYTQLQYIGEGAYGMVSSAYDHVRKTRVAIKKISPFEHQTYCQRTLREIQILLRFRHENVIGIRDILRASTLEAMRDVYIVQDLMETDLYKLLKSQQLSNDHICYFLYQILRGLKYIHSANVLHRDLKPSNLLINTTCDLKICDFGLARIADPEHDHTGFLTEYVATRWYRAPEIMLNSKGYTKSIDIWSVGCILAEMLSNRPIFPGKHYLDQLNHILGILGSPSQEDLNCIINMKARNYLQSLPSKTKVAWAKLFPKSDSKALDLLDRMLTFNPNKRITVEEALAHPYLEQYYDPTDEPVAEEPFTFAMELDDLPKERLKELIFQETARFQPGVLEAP

Take `Cc1cnc(NC(=O)C2=C(O)c3ccccc3S(=O)(=O)N2C)s1` [MELOXICAM]: the concentration for half-maximal inhibition (IC50) result in assay [1], in assay [2], in assay [3], in assay [4], in assay [5] and in assay [6] was “Not Active” in each case. Further, the IC50 (in general, the concentration that gives 50% inhibition) in assay [7] (cho-k1) is recorded as “Not Active”. For the same compound, the Ki entry in assay [1] and in assay [4] was “Not Active” each time.

For the compound `Nc1nc(N)c2nc(-c3ccccc3)c(N)nc2n1`, the IC50 result in assay [1], in assay [2], in assay [3], in assay [4], in assay [5] and in assay [6] was “Not Active” throughout. For the same compound, in assay [7] (cho-k1), the IC50 result is “Not Active”. Besides, the Ki entry in assay [1] and in assay [4] was “Not Active” throughout.

Take `CC(C)(C)NC[C@H](O)COc1cccc2c1CCCC2=O` [LEVOBUNOLOL]: the IC50 entry in assay [1], in assay [2], in assay [3], in assay [4], in assay [5] and in assay [6] was “Not Active” each time. For the same compound, the IC50 in assay [7] (read-out: IC50) turned out to be 2900 nM. For the same compound, the Ki (in general, the dissociation constant of the complex between target and ligand, obtained from inhibition or displacement) is “Not Active” in assay [1], “Not Active” in assay [4] and 1660 nM in assay [7] (read-out: Ki).

Turning to `Cc1[nH]c(=O)c(C#N)cc1-c1ccncc1` [MILRINONE], the IC50 entry in assay [1], in assay [2], in assay [3], in assay [4], in assay [5] and in assay [6] was “Not Active” throughout. Also, the IC50 entry in assay [7] (cho-k1) is given as “Not Active”. In addition, the Ki entry in assay [1] and in assay [4] was “Not Active” in each case.

For `Cc1cn([C@H]2C=C[C@@H](CO)O2)c(=O)[nH]c1=O` [STAVUDINE], the IC50 result in assay [1], in assay [2], in assay [3], in assay [4], in assay [5] and in assay [6] was “Not Active” throughout. In addition, the half-maximal inhibitory concentration (IC50) entry in assay [7] (cho-k1) is listed as “Not Active”. Besides, the Ki entry in assay [1] and in assay [4] was “Not Active” each time.

Take `CCOc1cc(N)c(Cl)cc1C(=O)NCC1CN(Cc2ccc(F)cc2)CCO1` (stereo unspecified) [MOSAPRIDE]: the IC50 result in assay [1], in assay [2], in assay [3], in assay [4], in assay [5] and in assay [6] was “Not Active” in each case. Also, in assay [7] (cho-k1), the IC50 entry was “Not Active”. Besides, the inhibition constant Ki entry in assay [1] and in assay [4] was “Not Active” in each case.

Take `C#C[C@]1(O)CC[C@H]2[C@@H]3[C@H](C)CC4=C(CCC(=O)C4)[C@H]3CC[C@@]21C` [TIBOLONE]: the IC50 entry in assay [1], in assay [2], in assay [3], in assay [4], in assay [5] and in assay [6] was “Not Active” in each case. In addition, in assay [7] (cho-k1), the IC50 entry is listed as “Not Active”. For the same compound, the Ki entry in assay [1] and in assay [4] was “Not Active” throughout.

As to `CC[C@H](C)[C@@H](CO[C@@H](Cc1ccccc1)C(=O)N[C@@H](CCS(C)(=O)=O)C(=O)OC(C)C)NC[C@@H](N)CS`, the IC50 result in assay [1], in assay [2], in assay [3], in assay [4], in assay [5] and in assay [6] was “Not Active” throughout. Also, the IC50 result in assay [7] (cho-k1) is “Not Active”. Besides, the Ki result in assay [1] and in assay [4] was “Not Active” each time.

For the compound `OC[C@@H](O)[C@@H](O)[C@H](O)[C@H](O)CO` [MANNITOL], the IC50 result in assay [1], in assay [2], in assay [3], in assay [4], in assay [5] and in assay [6] was “Not Active” each time. The IC50 result in assay [7] (cho-k1) is reported as “Not Active”. Further, the Ki entry in assay [1] and in assay [4] was “Not Active” in each case.

`O=[As][O-].[Na+]` [SODIUM ARSENITE]: the IC50 entry in assay [1], in assay [2], in assay [3], in assay [4], in assay [5] and in assay [6] was “Not Active” throughout. For the same compound, the IC50 entry in assay [7] (cho-k1) is recorded as “Not Active”. Besides, the Ki result in assay [1] and in assay [4] was “Not Active” in each case.

As for `Cc1cc2c(s1)Nc1ccccc1N=C2N1CCN(C)CC1` [OLANZAPINE], the IC50 entry in assay [2], in assay [3], in assay [5], in assay [6] and in assay [7] (cho-k1) was “Not Active” each time.

Take `Cc1ccc(Cl)c(Nc2ccccc2C(=O)O)c1Cl` [MECLOFENAMIC ACID]: the IC50 entry in assay [1], in assay [2], in assay [3], in assay [4], in assay [5] and in assay [6] was “Not Active” in each case. Besides, in assay [7] (cho-k1), the half-maximal inhibitory concentration (IC50) result was “Not Active”. Moreover, the Ki entry in assay [1] and in assay [4] was “Not Active” each time.

For the compound `CCOC(=O)C1=C(C)NC(C)=C(C(=O)OCC)C1c1ccccc1/C=C/C(=O)OC(C)(C)C` [LACIDIPINE], the IC50 entry in assay [1], in assay [2], in assay [3], in assay [4], in assay [5] and in assay [6] was “Not Active” in each case. For the same compound, the IC50 result in assay [7] (cho-k1) was “Not Active”. The Ki entry in assay [1] and in assay [4] was “Not Active” throughout.

Turning to `CNCCCC12CCC(c3ccccc31)c1ccccc12` [MAPROTILINE], the IC50 entry in assay [2], in assay [3], in assay [5], in assay [6] and in assay [7] (cho-k1) was “Not Active” throughout.

Consider `O=C(c1ccccc1)c1ccc2n1CCC2C(=O)O` (stereo unspecified) [KETOROLAC], for which the IC50 entry in assay [1], in assay [2], in assay [3], in assay [4], in assay [5] and in assay [6] was “Not Active” throughout. Further, in assay [7] (cho-k1), the IC50 entry was “Not Active”. Moreover, the inhibition constant (Ki) entry in assay [1] and in assay [4] was “Not Active” each time.

In the case of `CCN(CC)N=O` [N-NITROSODIETHYLAMINE], the IC50 result in assay [1], in assay [2], in assay [3], in assay [4], in assay [5] and in assay [6] was “Not Active” each time. In addition, the IC50 entry in assay [7] (cho-k1) is recorded as “Not Active”. Besides, the Ki entry in assay [1] and in assay [4] was “Not Active” throughout.

As to `CN(C)CCC=C1c2ccccc2COc2ccccc21` [DOXEPIN], the IC50 result in assay [2], in assay [3], in assay [5] and in assay [6] was “Not Active” in each case.

(Values after ChEMBL document CHEMBL1909046, “DrugMatrix in vitro pharmacology data”.)
